# Earlier results, collected in patent US12201111B2, “Glyphosate formulations containing amidoalkylamine surfactants” (Monsanto Technology LLC, priority 2016, dated 2025).
# Settings: glyphosate in its acid form; 25° C.
structure (smiles),measurement,value
"O=C(O)CNCP(=O)(O)O [glyphosate, N-phosphonomethylglycine]",solubility in water,1.16 % by weight
